According to the NIST ThermoML archive (doi:10.1007/s10765-005-8096-3):

Assay: refractive index (Na D-line) (dimensionless); xn = mol fraction of the nth substance listed
Settings: 101 kPa, Liquid, Standard Abbe refractometry

CCCCOC(C)=O [butyl ethanoate] + Cc1ccccc1
refractive index
Settings | 293.15 K | 298.15 K | 303.15 K | 308.15 K | 313.15 K
x1 = 0.0499 | 1.49044 | 1.48757 | 1.48472 | 1.4818 | 1.47891
x1 = 0.0998 | 1.48428 | 1.48149 | 1.47861 | 1.47573 | 1.47285
x1 = 0.15 | 1.47815 | 1.47538 | 1.47251 | 1.46966 | 1.46684
x1 = 0.2001 | 1.47222 | 1.46948 | 1.46668 | 1.46382 | 1.46101
x1 = 0.2502 | 1.46644 | 1.46358 | 1.46079 | 1.45814 | 1.45535
x1 = 0.2985 | 1.461 | 1.45826 | 1.45547 | 1.45277 | 1.4501
x1 = 0.3447 | 1.4559 | 1.45318 | 1.45041 | 1.44769 | 1.44494
x1 = 0.4011 | 1.4498 | 1.44705 | 1.4443 | 1.44161 | 1.4389
x1 = 0.4468 | 1.44504 | 1.44235 | 1.4397 | 1.43691 | 1.43423
x1 = 0.4994 | 1.43964 | 1.43696 | 1.4343 | 1.43157 | 1.42895
x1 = 0.5524 | 1.4343 | 1.43166 | 1.42902 | 1.42632 | 1.42368
x1 = 0.5999 | 1.42964 | 1.42695 | 1.42432 | 1.42164 | 1.41904
x1 = 0.6517 | 1.42468 | 1.42207 | 1.41943 | 1.41676 | 1.41415
x1 = 0.7 | 1.42017 | 1.41756 | 1.41498 | 1.41233 | 1.40974
x1 = 0.7516 | 1.41545 | 1.41287 | 1.41026 | 1.40773 | 1.40511
x1 = 0.7972 | 1.41141 | 1.40888 | 1.40629 | 1.40371 | 1.4012
x1 = 0.8404 | 1.4076 | 1.40508 | 1.4025 | 1.39992 | 1.39741
x1 = 0.8971 | 1.40273 | 1.40025 | 1.39777 | 1.39518 | 1.39265
x1 = 0.9449 | 1.39881 | 1.3963 | 1.39384 | 1.39133 | 1.38884

CC(C)(C)c1ccccc1 [(1,1-dimethylethyl)benzene] + CCCCOC(C)=O
refractive index
Settings | 293.15 K | 298.15 K | 303.15 K | 308.15 K | 313.15 K
x2 = 0.0517 | 1.48818 | 1.48564 | 1.48328 | 1.48061 | 1.47812
x2 = 0.1 | 1.48411 | 1.48154 | 1.47905 | 1.47649 | 1.47384
x2 = 0.1522 | 1.4795 | 1.47702 | 1.47452 | 1.47204 | 1.46953
x2 = 0.1995 | 1.47531 | 1.47273 | 1.47031 | 1.4677 | 1.46521
x2 = 0.2511 | 1.47077 | 1.46811 | 1.4657 | 1.46309 | 1.46062
x2 = 0.3008 | 1.46621 | 1.4636 | 1.4612 | 1.45859 | 1.45614
x2 = 0.3516 | 1.46145 | 1.45891 | 1.45652 | 1.45387 | 1.45137
x2 = 0.4061 | 1.45636 | 1.45381 | 1.45141 | 1.4488 | 1.44635
x2 = 0.4489 | 1.45221 | 1.44966 | 1.44727 | 1.4447 | 1.44226
x2 = 0.4994 | 1.44728 | 1.44477 | 1.44234 | 1.43978 | 1.43736
x2 = 0.5499 | 1.44227 | 1.43976 | 1.43736 | 1.43476 | 1.43237
x2 = 0.607 | 1.43649 | 1.434 | 1.43155 | 1.42904 | 1.42656
x2 = 0.6496 | 1.43209 | 1.42958 | 1.42717 | 1.42461 | 1.42212
x2 = 0.7006 | 1.42687 | 1.42436 | 1.42195 | 1.41938 | 1.41686
x2 = 0.7489 | 1.42175 | 1.41927 | 1.41683 | 1.41427 | 1.41174
x2 = 0.8013 | 1.41615 | 1.41367 | 1.41122 | 1.40871 | 1.40625
x2 = 0.8509 | 1.41079 | 1.40829 | 1.40593 | 1.40331 | 1.4009
x2 = 0.9005 | 1.40535 | 1.40288 | 1.40048 | 1.39799 | 1.39547
x2 = 0.95 | 1.39982 | 1.39742 | 1.3949 | 1.39263 | 1.39007

CCCCOC(C)=O [butyl ethanoate] + CCc1ccccc1
refractive index
Settings | 293.15 K | 298.15 K | 303.15 K | 308.15 K | 313.15 K
x1 = 0.0544 | 1.48984 | 1.48716 | 1.48442 | 1.48172 | 1.47899
x1 = 0.1008 | 1.48485 | 1.48219 | 1.47946 | 1.47673 | 1.47401
x1 = 0.1488 | 1.4796 | 1.47693 | 1.47418 | 1.47152 | 1.46884
x1 = 0.2024 | 1.47382 | 1.47116 | 1.46843 | 1.4658 | 1.4631
x1 = 0.254 | 1.46832 | 1.46568 | 1.46302 | 1.46037 | 1.45768
x1 = 0.2929 | 1.46417 | 1.46155 | 1.4589 | 1.45623 | 1.45354
x1 = 0.3526 | 1.45799 | 1.45536 | 1.45263 | 1.45 | 1.44729
x1 = 0.3989 | 1.45314 | 1.45054 | 1.44782 | 1.44526 | 1.44253
x1 = 0.4448 | 1.44842 | 1.44582 | 1.44315 | 1.44053 | 1.43785
x1 = 0.5021 | 1.44254 | 1.43999 | 1.43733 | 1.43472 | 1.43207
x1 = 0.5505 | 1.43764 | 1.43508 | 1.43242 | 1.42983 | 1.4272
x1 = 0.6041 | 1.43221 | 1.42967 | 1.42703 | 1.42449 | 1.42191
x1 = 0.6456 | 1.42806 | 1.42552 | 1.42292 | 1.42036 | 1.41779
x1 = 0.7003 | 1.42266 | 1.42015 | 1.41759 | 1.41507 | 1.41252
x1 = 0.7555 | 1.41729 | 1.41481 | 1.41224 | 1.40974 | 1.4072
x1 = 0.8016 | 1.41282 | 1.41035 | 1.40784 | 1.40537 | 1.40283
x1 = 0.8511 | 1.40813 | 1.40566 | 1.4032 | 1.40068 | 1.39815
x1 = 0.9009 | 1.40339 | 1.40097 | 1.39849 | 1.39597 | 1.39349
x1 = 0.9505 | 1.39875 | 1.39633 | 1.39386 | 1.39139 | 1.38895

CC(C)Cc1ccccc1 [(2-methylpropyl)benzene] + CCCCOC(C)=O
refractive index
Settings | 293.15 K | 298.15 K | 303.15 K | 308.15 K | 313.15 K
x2 = 0.056 | 1.48206 | 1.47965 | 1.47708 | 1.47442 | 1.47211
x2 = 0.1042 | 1.47812 | 1.47565 | 1.4731 | 1.47066 | 1.46813
x2 = 0.1619 | 1.47345 | 1.47097 | 1.4685 | 1.46595 | 1.4635
x2 = 0.201 | 1.47035 | 1.46781 | 1.46524 | 1.46268 | 1.46015
x2 = 0.2486 | 1.46644 | 1.46384 | 1.46128 | 1.45868 | 1.45618
x2 = 0.3027 | 1.4618 | 1.45922 | 1.45658 | 1.45405 | 1.45156
x2 = 0.3619 | 1.45664 | 1.45401 | 1.45147 | 1.44897 | 1.44641
x2 = 0.3994 | 1.4533 | 1.45072 | 1.44816 | 1.44564 | 1.4431
x2 = 0.4537 | 1.44838 | 1.44587 | 1.44328 | 1.44077 | 1.43826
x2 = 0.5056 | 1.44366 | 1.4411 | 1.43853 | 1.43602 | 1.43356
x2 = 0.5506 | 1.43942 | 1.43693 | 1.43443 | 1.43187 | 1.4294
x2 = 0.5973 | 1.43506 | 1.43254 | 1.43002 | 1.4275 | 1.42498
x2 = 0.6485 | 1.43012 | 1.42758 | 1.42505 | 1.42256 | 1.42003
x2 = 0.6954 | 1.42551 | 1.423 | 1.42052 | 1.41799 | 1.41549
x2 = 0.751 | 1.41999 | 1.41754 | 1.41506 | 1.41255 | 1.41004
x2 = 0.7981 | 1.41525 | 1.41278 | 1.4103 | 1.40782 | 1.40532
x2 = 0.8469 | 1.41021 | 1.40779 | 1.40535 | 1.4029 | 1.40036
x2 = 0.8995 | 1.40482 | 1.40235 | 1.39997 | 1.39757 | 1.39493
x2 = 0.9482 | 1.39966 | 1.3973 | 1.39479 | 1.39237 | 1.38994
